IC50 data for one molecule are collected here from ChEMBL document CHEMBL3639235, “Depsipeptides and their therapeutic use” (2014).

For the experiment, the target named is Histone deacetylase 1 (Homo sapiens, UniProt Q13547). The experiment can be described thus: Fluorescent Activity Assay: In vitro HDAC assays were performed using a HDAC fluorescent activity assay kit (Biomol, UK) according to the manufacturer's instructions. Compounds were reduced prior to analysis; 1 mM compound was reduced with 30 mM DTT in DMSO overnight at room temperature, protected from light. Reactions were then set up in a 96-well plate. For each reaction 10 ul compound (5x required concentration in assay buffer) was mixed with […] diluted HeIa Nuclear Extract (30-fold in assay buffer). Serial dilutions were set up for each compound. Reactions containing HeIa extract only and assay buffer only were also set up. 25 ul diluted Fluor de Lys substrate (100-fold in assay buffer) was added to each reaction, which were then incubated at 37C for 1 hour. The reaction was stopped by addition of 50 ul Fluor de Lys Developer (20-fold dilution in assay buffer, plus TSA diluted 100-fold). The reactions were then incubated at room temperature for 10 minutes before fluorescence was measured.
Histone deacetylase 1, sequence (Q13547 whole entry): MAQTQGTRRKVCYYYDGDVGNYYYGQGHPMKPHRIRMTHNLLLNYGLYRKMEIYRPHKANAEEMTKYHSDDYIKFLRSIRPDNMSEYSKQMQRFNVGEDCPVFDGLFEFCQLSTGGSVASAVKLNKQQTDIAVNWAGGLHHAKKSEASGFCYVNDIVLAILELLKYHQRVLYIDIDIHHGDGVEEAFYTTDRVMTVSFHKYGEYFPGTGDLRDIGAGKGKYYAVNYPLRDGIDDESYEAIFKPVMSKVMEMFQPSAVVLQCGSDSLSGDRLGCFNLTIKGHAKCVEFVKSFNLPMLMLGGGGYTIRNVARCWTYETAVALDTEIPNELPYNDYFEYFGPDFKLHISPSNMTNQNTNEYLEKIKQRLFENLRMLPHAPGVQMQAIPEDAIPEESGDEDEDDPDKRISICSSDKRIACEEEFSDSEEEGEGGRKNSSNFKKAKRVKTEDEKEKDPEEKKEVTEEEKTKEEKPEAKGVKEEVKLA

SMILES strings stand for the structures.

For orientation: IC50 means the concentration that gives 50% inhibition. `CC(=O)SCC/C=C/[C@@H]1CC(=O)N[C@H](C(C)C)C(=O)N[C@H](C)C(=O)N[C@H](C(C)C)[C@@H](O)CC(=O)O1`: the IC50 was 21.6 nM.
